Test results from the NIST ThermoML archive (doi:10.1016/j.tca.2016.03.025).
± gives the expanded uncertainty stated by the source.

Experiment: not given
Conditions: Crystal; DTA

| SMILES | Normal melting temperature [°C] |
| --- | --- |
| CCC(=O)O[C@](Cc1ccccc1)(c1ccccc1)[C@H](C)CN(C)C.Cl [Dextropropoxyphene hydrochloride] | 168 ± 2 |
| CC(=O)Nc1ccc(O)cc1 [N-acetyl-p-aminophenol] | 170.2 ± 2 |
| CN[C@@H](C)[C@@H](O)c1ccccc1.Cl [Pseudoephedrine hydrochloride] | 185 ± 2 |
| COc1cccc([C@@]2(O)CCCC[C@@H]2CN(C)C)c1.Cl [tramadol hydrochloride] | 184.1 ± 2 |

Experiment: Molar enthalpy of transition or fusion
Conditions: Crystal; DSC

| SMILES | Molar enthalpy of transition or fusion [kcal/mol] |
| --- | --- |
| CCC(=O)O[C@](Cc1ccccc1)(c1ccccc1)[C@H](C)CN(C)C.Cl [Dextropropoxyphene hydrochloride] | 7.6 ± 0.382 |
| CC(=O)Nc1ccc(O)cc1 [N-acetyl-p-aminophenol] | 6.51 ± 0.196 |
| CN[C@@H](C)[C@@H](O)c1ccccc1.Cl [Pseudoephedrine hydrochloride] | 6.54 ± 0.237 |
| COc1cccc([C@@]2(O)CCCC[C@@H]2CN(C)C)c1.Cl [tramadol hydrochloride] | 7.07 ± 0.311 |
